Test results taken from article PMC11578372, “ProT‐Diff: A Modularized and Efficient Strategy for De Novo Generation of Antimicrobial Peptide Sequences by Integrating Protein Language and Diffusion Models” (Advanced Science, 2024).
Where two headings read alike, the source gives them in different places. Where no end group is shown, it is not given here.

Assays:
[1] = 1 µg mL−1 (0.35 µM); cited from earlier work
Excerpt: (§1) In general, a higher antimicrobial potency in antimicrobial peptides often correlates with an elevated risk of heightened cytotoxicity and hemolytic activity. […] However, even at a ...

E. coli [2] = conditions: cited from earlier work
Excerpt: as §1

human cell = conditions: 10 µg mL−1 (3.5 µM); cited from earlier work
Excerpt: as §1

E. coli [3] = format: cell-based, Escherichia coli
Protocol: (§2) For the MIC determination of selected AMPs, 100 ul bacterial culture with an OD600 value of ≈0.1 was incubated with AMPs at concentrations ranging from 0 to 100 µM at 37 °C for 15–18 h. Herein, the MIC was determined as the minimum concentration of AMPs at which no detectable bacterial growth was observed.
(§3) All experiments were conducted with a minimum of four independent replicates. Student's t‐test was used to compare the means between the experimental and control groups (two‐sided).

all tested bacteria = format: cell-based
Excerpt: Gram‐negative bacteria include E. coli DH5α, E. coli O157: H7 CICC 21530, S. typhimurium CICC 21484, A. baumannii AB6, and P. aeruginosa ATCC 15442. Gram‐positive bacteria included S. aureus ATCC 33591, Methicillin‐resistant MRSA ATCC 43300, B. subtilis ATCC 9372. L. sphaericus CCM 2177. Two E. coli clinical isolates with mgrB mutations from Tongji Hospital (Wuhan, China) were used in this study, namely E. coli mgrB mutant 2^# and E. coli mgrB mutant 23^#.
as §2, §3

[4] = Cytotoxicity against mammalian cells (CCK-8); format: cell-based; conditions: human, 293T, CCK-8, n = 6, read-out: half maximal inhibitory concentration (IC50), cytotoxicity
Protocol: Cell Counting Kit 8 (CCK‐8) assay was used to assess the cytotoxicity of the AMPs against mammalian cells. Specifically, ≈4000 293T cells were seeded per well in a 96‐well cell culture plate (Corning, US), and were incubated at 37 °C with 5% CO2 for 24 h. Subsequently, the culture medium was replaced by different concentrations of AMPs solution diluted with the medium. The cells were co‐incubated with AMPs solution for an additional 24 h at 37 °C. And then, 10 µl of the CCK‐8 reagent (Beijing Lablead Biotech, China) was added to each well for 2 h of incubation at 37 °C. Finally, OD at 450 nm was measured using an imaging multimode microplate reader (Cytation 3, BioTek, US). Cell viability was defined as the percentage of each concentration relative to the control. Six replicates were used for the CCK‐8 assay.

E. coli DH5α = experiment: TEM of cell membrane damage; format: cell-based, Escherichia coli; conditions: 1× MIC, 2–8 h, 37 °C
Protocol: Transmission Electron Microscopy (TEM) was employed to assess the cell membrane damage induced by AMPs. First, 50 µL of E. coli DH5α culture with an OD600 of ≈0.1 were mixed with 50 µL of AMPs solution (at 1× MIC) in a 96‐well plate. This mixture was incubated at 37 °C for 2, 4, 8, and 16 h. Following the incubation period, the bacteria were pelleted by centrifugation at 6,000 rpm for 5 min and fixed with 2.5% (vol/vol) glutaraldehyde in phosphate buffer (PB, 0.1 M, pH 7.4). Subsequently, the cells were postfixed with 1% (wt/vol) osmium tetraoxide in PB for 2 h at 4 °C, and were dehydrated through a graded ethanol series (30%, 50%, 70%, 80%, 90%, 100%, with each step lasting 7 min) before being put in pure acetone by two 10‐min steps. Following dehydration, the samples were subjected to infiltration using progressively mixed combinations of acetone and SPI‐PON812 resin (composed of 16.2 g SPI‐PON812, 10 g DDSA, and 8.9 g NMA) in ratios of 3:1, 1:1, and 1:3. The infiltration medium was then replaced with pure resin. Finally, the cells were embedded in pure resin containing 1.5% BDMA and polymerized for 12 h at 45 °C, followed by an additional 48 h polymerization at 60 °C. Ultrathin sections (70 nm thick) were obtained using a microtome (Leica EM UC6), double‐stained with uranyl acetate and lead citrate, and examined using a transmission electron microscope (FEI Tecnai Spirit 120 kV).

E. coli mgrB mutant 23# = experiment: Lethal murine acute peritonitis model; format: in vivo, mouse (female BALB/c); conditions: for survival versus PBS treatment group (log-rank test): AMP_2 single IP dose, penicillin 50000 units per kg every 12 h for 3 d
Protocol: Female BALB/c mice weighing ≈18 g and aged 5–6 weeks were used to build a lethal murine acute peritonitis model according to previously established protocols.^[ [43], [44], [45] ^] The mice were subjected to intraperitoneal injections with E. colimgrB mutant 23^#suspension (0.2 mL per mouse) at concentration of 5×10^5 CFU mL^−1, 5×10^6 CFU mL^−1, 5×10^7 CFU mL^−1, respectively. […] Each group comprised of eight mice.
Subsequently, the mice were administered varying doses of AMP_2 (0.125, 0.25, 0.5, 1, 2, and 4 mg kg^−1) immediately after infection. As controls, the infected mice received intraperitoneal injections of sterile PBS or underwent penicillin treatment (0.2 mL per mouse). The single dose of penicillin administered was 50000 units per kg, and the mice received antibiotic treatment every 12 h for 3 d. The behavior and survival of the animals were monitored over a 7‐day period. Blood samples were collected from the mice before euthanasia for routine blood tests. The experiments were conducted in groups of eight mice.

Row | Substance | hemolysis of cells [1] [%] | MIC (E. coli [2]) [µM] | human cell death (human cell) [%] | MIC (E. coli [3]) [µM] | MIC / spectrum against the tested bacteria (all tested bacteria) [µM] | IC50 at 24 h [4] [µM] | bacterial morphology by TEM (E. coli DH5α) | body weight by the sixth day post-infection (E. coli mgrB mutant 23#; 4 mg kg−1 IP, surviving infected mice) | survival versus PBS treatment group (log-rank test) (E. coli mgrB mutant 23#; 8 mice per group) | routine blood components, treatment versus control group (E. coli mgrB mutant 23#; blood collected before euthanasia, infected mice treated with AMP_2) | protection of infected mice (survival) (E. coli mgrB mutant 23#; single IP dose 0.5 mg kg−1 immediately after infection, 5×10^5 CFU mL−1, 7-day observation, 8 mice per group)
1 | melittin | 50 | 1 to 15 | > 50 |  |  |  |  |  |  |  | 
2 | KWKFFKKIRKVGKKIRKVIKKIGKAVGAAAQAAGQAANA [AMP_2] |  |  |  | 2.5 | ≤ 20 | > 40 | serious leakage of cellular contents | slight decrease in body weight | significant differences in survival | not significantly different | complete protection
3 | penicillin [reference compound] |  |  |  |  |  |  |  |  | no significant difference |  | 
